Common to all, as to type: in vivo
Test [1] has as its system Alopecurus myosuroides (ALOMY). The test can be described thus: Pre-emergence herbicidal activity, glasshouse pot test. The conditions noted are these: Alopecurus myosuroides, 312 h, Rate 250 g/ha, evaluated after 13 days, read-out: Pre-emergence activity ALOMY (100=total damage to plant; 0=no damage to plant). In short, it runs like this:
(§1)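 Seeds sown in standard soil in pots were sprayed 1 day after sowing (pre-emergence) or after 8 days' cultivation (post-emergence) with aqueous spray from acetone/water (50:50) formulation containing 0.5% Tween 20. Plants grew at 24/16° C day/night, 14 h light, 65% humidity, watered twice daily. Damage scored after 13 days, 0–100.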

Test [2] deals with Avena fatua (AVEFA). The test is described as above. The conditions noted are these: Avena fatua, 312 h, Rate 250 g/ha, evaluated after 13 days, read-out: Pre-emergence activity AVEFA (100=total damage to plant; 0=no damage to plant). In short, it runs like this: as §1
Test [3] has as its system Echinochloa crus-galli (ECHCG). The description is as above. To be noted: Echinochloa crus-galli, 312 h, Rate 250 g/ha, evaluated after 13 days, read-out: Pre-emergence activity ECHCG (100=total damage to plant; 0=no damage to plant). In short, it runs like this:
as §1

Test [4] relates to Lolium perenne (LOLPE). Described as above. To be noted: Lolium perenne, 312 h, Rate 250 g/ha, evaluated after 13 days, read-out: Pre-emergence activity LOLPE (100=total damage to plant; 0=no damage to plant). In short, it runs like this:
as §1

Test [5] concerns Alopecurus myosuroides (ALOMY). The test can be described thus: Post-emergence herbicidal activity, glasshouse pot test. The conditions noted are these: Alopecurus myosuroides, 312 h, rate 250 g/ha, evaluated after 13 days, read-out: Post-emergence activity ALOMY (100=total damage to plant; 0=no damage to plant). In short, it runs like this: as §1
Test [6] deals with Avena fatua (AVEFA). Described as above. To be noted: Avena fatua, 312 h, rate 250 g/ha, evaluated after 13 days, read-out: Post-emergence activity AVEFA (100=total damage to plant; 0=no damage to plant). In short, it runs like this: as §1
Test [7] has as its system Echinochloa crus-galli (ECHCG). The description is as above. The conditions noted are these: Echinochloa crus-galli, 312 h, rate 250 g/ha, evaluated after 13 days, read-out: Post-emergence activity ECHCG (100=total damage to plant; 0=no damage to plant). In short, it runs like this: as §1
For test [8], the system named is Lolium perenne (LOLPE). Described as above. The conditions noted are these: Lolium perenne, 312 h, rate 250 g/ha, evaluated after 13 days, read-out: Post-emergence activity LOLPE (100=total damage to plant; 0=no damage to plant). In short, it runs like this:
as §1

On to `CC1(C)OC(C)(C)C(O)=C(c2cc(Oc3ncc(Cl)cc3Cl)ccc2C2CC2)C1=O` [Example A-364], for which the pest or weed control at 250 g/ha worked out at 70% in test [1] (pre-emergence); 60% in the test on Avena fatua (AVEFA) [2] (pre-emergence); 100% in test [3] (pre-emergence); 90% in the test with Lolium perenne (LOLPE) [4] (pre-emergence); 100% in test [5]; 90% with Avena fatua (AVEFA) [6]. Moreover, the pest or weed control at 250 g/ha was 100% in test [7] and 90% with Lolium perenne (LOLPE) [8].

Take `CCc1ccc(Oc2ccc([N+](=O)[O-])cc2)cc1C1=C(O)C(C)(C)OC(C)(C)C1=O` [Example A-195]: the pest or weed control at 250 g/ha in test [1] (pre-emergence spray) came out at 30%; in the test with Avena fatua (AVEFA) [2] (pre-emergence spray), 0%; in test [3] (pre-emergence spray) it was 100%; in the test on Lolium perenne (LOLPE) [4] (pre-emergence spray) it was 40%; in test [5] (glasshouse), 60%; with Avena fatua (AVEFA) [6] (glasshouse), 60%. In addition, the pest or weed control at 250 g/ha was 100% in test [7] (glasshouse) and 80% in the test on Lolium perenne (LOLPE) [8] (glasshouse).

As for `CCc1ccc(Oc2ccc(C#N)c(Cl)c2)cc1C1=C(O)C(C)(C)OC(C)(C)C1=O` [Example A-75], the pest or weed control at 250 g/ha in test [1] (pre-emergence spray) was 100%; in the test with Avena fatua (AVEFA) [2] (pre-emergence spray) it was 80%; in test [3] (pre-emergence spray), 100%; with Lolium perenne (LOLPE) [4] (pre-emergence spray) it was 100%; in test [5] (glasshouse) it was 100%; in the test on Avena fatua (AVEFA) [6] (glasshouse) it was 90%. Moreover, the pest or weed control at 250 g/ha (in test [7] (glasshouse); in the test with Lolium perenne (LOLPE) [8] (glasshouse)) was 100% in each case.

`CCc1ccc(Oc2cccc(F)c2)cc1C1=C(O)C(C)(C)OC(C)(C)C1=O` [Example A-58]: the pest or weed control at 250 g/ha in test [1] (pre-emergence spray) is 0%; with Avena fatua (AVEFA) [2] (pre-emergence spray), 0%; in test [3] (pre-emergence spray), 70%; with Lolium perenne (LOLPE) [4] (pre-emergence spray) it was 0%; in test [5] (glasshouse), 0%; with Avena fatua (AVEFA) [6] (glasshouse), 0%. Moreover, the pest or weed control at 250 g/ha in test [7] (glasshouse) came to 80%; in the test on Lolium perenne (LOLPE) [8] (glasshouse), 0%.

On to `CCc1ccc(Oc2nc3ccc(OC)cc3s2)cc1C1=C(O)[C@H]2CC[C@H](C2)C1=O` [Example A-343], for which the pest or weed control at 250 g/ha worked out at 50% in test [1] (pre-emergence spray); 50% in the test on Avena fatua (AVEFA) [2] (pre-emergence spray); 100% in test [3] (pre-emergence spray); 100% with Lolium perenne (LOLPE) [4] (pre-emergence spray); 50% in test [5] (glasshouse); 80% with Avena fatua (AVEFA) [6] (glasshouse). The pest or weed control at 250 g/ha in test [7] (glasshouse) came to 100%; in the test on Lolium perenne (LOLPE) [8] (glasshouse) it was 80%.

For `CCc1ccc(Oc2nc3ccc(Cl)cc3s2)cc1C1=C(O)[C@H]2CC[C@H](C2)C1=O` [Example A-338], the pest or weed control at 250 g/ha in test [1] (pre-emergence spray) was determined as 90%; in the test with Avena fatua (AVEFA) [2] (pre-emergence spray), 80%; in test [3] (pre-emergence spray) it was 100%; with Lolium perenne (LOLPE) [4] (pre-emergence spray), 100%; in test [5] (glasshouse) it was 100%; with Avena fatua (AVEFA) [6] (glasshouse), 100%. Also, the pest or weed control at 250 g/ha (in test [7] (glasshouse); with Lolium perenne (LOLPE) [8] (glasshouse)) was 100% throughout.

For the compound `CCc1ccc(Oc2nc3ccc(F)cc3nc2Cl)cc1C1=C(O)C(C)(C)OC(C)(C)C1=O` [Example A-173], the pest or weed control at 250 g/ha came out at 0% in test [1] (pre-emergence spray); 0% with Avena fatua (AVEFA) [2] (pre-emergence spray); 50% in test [3] (pre-emergence spray); 10% with Lolium perenne (LOLPE) [4] (pre-emergence spray); 0% in test [5] (glasshouse); 10% with Avena fatua (AVEFA) [6] (glasshouse). Also, the figures for the pest or weed control at 250 g/ha (in test [7] (glasshouse); with Lolium perenne (LOLPE) [8] (glasshouse)) were 20% and 10%, respectively.

As for `CCc1ccc(Oc2ccc([N+](=O)[O-])c(C)c2)cc1C1=C(O)C(C)(C)OC(C)(C)C1=O` [Example A-200], the pest or weed control at 250 g/ha in test [1] (pre-emergence spray) was found to be 20%; with Avena fatua (AVEFA) [2] (pre-emergence spray), 0%; in test [3] (pre-emergence spray) it was 50%; in the test with Lolium perenne (LOLPE) [4] (pre-emergence spray) it was 60%; in test [5] (glasshouse) it was 70%; in the test with Avena fatua (AVEFA) [6] (glasshouse), 10%. The pest or weed control at 250 g/ha in test [7] (glasshouse) was 90%; in the test on Lolium perenne (LOLPE) [8] (glasshouse) it was 70%.

Regarding `CCc1ccc(Oc2cnc3ccccc3n2)cc1C1=C(O)CC(C)(C)CC1=O` [Example A-291], the pest or weed control at 250 g/ha turned out to be 70% in test [1] (pre-emergence spray); 90% with Avena fatua (AVEFA) [2] (pre-emergence spray); 100% in test [3] (pre-emergence spray); 100% in the test with Lolium perenne (LOLPE) [4] (pre-emergence spray); 100% in test [5] (glasshouse); 100% in the test with Avena fatua (AVEFA) [6] (glasshouse). Also, the pest or weed control at 250 g/ha (in test [7] (glasshouse); in the test on Lolium perenne (LOLPE) [8] (glasshouse)) was 100% in each case.

Regarding `CCc1ccc(Oc2ccc(C#N)c(Cl)c2)cc1C1=C(O)[C@H]2CC[C@H](C2)C1=O` [Example A-330], the pest or weed control at 250 g/ha in test [1] (pre-emergence spray) was 80%; in the test on Avena fatua (AVEFA) [2] (pre-emergence spray), 80%; in test [3] (pre-emergence spray), 100%; with Lolium perenne (LOLPE) [4] (pre-emergence spray), 100%; in test [5] (glasshouse) it was 70%; in the test on Avena fatua (AVEFA) [6] (glasshouse) it was 80%. Also, the pest or weed control at 250 g/ha is 100% in test [7] (glasshouse) and 70% with Lolium perenne (LOLPE) [8] (glasshouse).

In the case of `CCc1ccc(Oc2nc(C(F)(F)F)c(C#N)s2)cc1C1=C(O)C(C)(C)OC(C)(C)C1=O` [Example A-115], the pest or weed control at 250 g/ha was 0% in test [1] (pre-emergence spray); 0% in the test on Avena fatua (AVEFA) [2] (pre-emergence spray); 0% in test [3] (pre-emergence spray); 0% in the test with Lolium perenne (LOLPE) [4] (pre-emergence spray); 0% in test [5] (glasshouse); 10% in the test on Avena fatua (AVEFA) [6] (glasshouse). Besides, the pest or weed control at 250 g/ha in test [7] (glasshouse) came out at 60%; in the test on Lolium perenne (LOLPE) [8] (glasshouse), 0%.

With `CCc1ccc(Oc2ccc(C(F)(F)F)c(C#N)c2)cc1C1=C(O)CC2(CCOCC2)CC1=O` [Example A-266], the pest or weed control at 250 g/ha in test [1] (pre-emergence spray) was determined as 50%; in the test with Avena fatua (AVEFA) [2] (pre-emergence spray), 50%; in test [3] (pre-emergence spray), 90%; in the test with Lolium perenne (LOLPE) [4] (pre-emergence spray), 90%; in test [5] (glasshouse), 90%; in the test with Avena fatua (AVEFA) [6] (glasshouse), 90%. Also, the results for the pest or weed control at 250 g/ha (in test [7] (glasshouse); in the test on Lolium perenne (LOLPE) [8] (glasshouse)) were 100% and 70%, respectively.

Take `CCc1ccc(Oc2ccc(F)c(C(F)(F)F)c2)cc1C1=C(O)C(C)(C)OC(C)(C)C1=O` [Example A-178]: the pest or weed control at 250 g/ha was found to be 10% in test [1] (pre-emergence spray); 0% in the test on Avena fatua (AVEFA) [2] (pre-emergence spray); 10% in test [3] (pre-emergence spray); 0% in the test with Lolium perenne (LOLPE) [4] (pre-emergence spray); 40% in test [5] (glasshouse); 40% in the test on Avena fatua (AVEFA) [6] (glasshouse). Besides, the figures for the pest or weed control at 250 g/ha (in test [7] (glasshouse); in the test with Lolium perenne (LOLPE) [8] (glasshouse)) were 80% and 30%, respectively.

With `CCc1ccc(Oc2nc3cc4c(cc3s2)OCCO4)cc1C1=C(O)C(C)(C)OC(C)(C)C1=O` [Example A-215], the pest or weed control at 250 g/ha is 0% in test [1] (pre-emergence spray); 0% in the test with Avena fatua (AVEFA) [2] (pre-emergence spray); 20% in test [3] (pre-emergence spray); 0% with Lolium perenne (LOLPE) [4] (pre-emergence spray); 10% in test [5] (glasshouse); 0% in the test on Avena fatua (AVEFA) [6] (glasshouse). For the same compound, the pest or weed control at 250 g/ha in test [7] (glasshouse) amounted to 40%; in the test on Lolium perenne (LOLPE) [8] (glasshouse), 20%.

As for `CCc1ccc(Oc2ccc(Br)cc2Cl)cc1C1=C(O)C(C)(C)OC(C)(C)C1=O` [Example A-9], the pest or weed control at 250 g/ha in test [1] (pre-emergence spray) was 60%; with Avena fatua (AVEFA) [2] (pre-emergence spray), 30%; in test [3] (pre-emergence spray), 100%; in the test on Lolium perenne (LOLPE) [4] (pre-emergence spray), 80%; in test [5] (glasshouse), 90%; in the test with Avena fatua (AVEFA) [6] (glasshouse), 100%. In addition, the pest or weed control at 250 g/ha in test [7] (glasshouse) came out at 100%; with Lolium perenne (LOLPE) [8] (glasshouse), 80%.

For the origin of these results see patent US8865623B2, “Herbicidally active cyclic diones and derivatives thereof, processes for their preparation, compositions, and method of controlling weeds” (Syngenta Limited, priority 2009, dated 2014).
